The values that follow come from patent publication US7947709B2, “Non-nucleoside reverse transcriptase inhibitors” (Roche Palo Alto LLC, priority 2007, dated 2011).

Series [1] has as its target T1, HIV-1 RT (Human immunodeficiency virus type 1 group M subtype B, UniProt P04585).
T1 construct: HIV-1 RT enzyme (final concentrations of 1-3 nM)
As to the kind of experiment: HIV-1 Reverse Transcriptase Assay (RNA-dependent DNA polymerase activity, SPA). The class given is biochemical. As to the method: HIV-1 Reverse Transcriptase Assay
RNA-dependent DNA polymerase activity was measured using a biotinylated primer oligonucleotide and tritiated dNTP substrate. Newly synthesized DNA was quantified by capturing the biotinylated primer molecules on streptavidin coated Scintillation Proximity Assay (SPA) beads (Amersham). The sequences of the polymerase assay substrate were: 18 nt DNA primer, 5′-Biotin/GTC CCT GTT CGG GCG CCA-3′; 47 nt RNA template, 5′-GGGUCUCUCUGGUUAGACCACUCUAGCAGUGGCGCCCGAACAGGGAC-3′. The biotinylated DNA primer was obtained from the Integrated DNA Technologies Inc. and the RNA template was synthesized by Dharmacon. The DNA polymerase assay (final volume 50 μl) contained 32 nM biotinylated DNA primer, 64 nM RNA substrate, dGTP, dCTP, dTTP (each at 5 μM), 103 nM [^3H]-dATP (specific activity=[…]), in 45 mM Tris-HCl, pH 8.0, 45 mM NaCl, 2.7 mM Mg(CH3COO)2, 0.045% Triton X-100 w/v, 0.9 mM EDTA. The reations contained 5 ul of serial compound dilutions in 100% DMSO for IC50 determination and the final concentrations of DMSO were 10%. Reactions were initiated by the addition of 30 μl of the HIV-1 RT enzyme (final concentrations of 1-3 nM). Protein concentrations were adjusted to provide linear product formation for at least 30 min of incubation. After incubation at 30° C. for 30 min, the reaction was quenched by addition of 50 μl of 200 mM EDTA (pH 8.0) and 2 mg/ml SA-PVT SPA beads (Amersham, RPNQ0009, reconstituted in 20 mM Tris-HCl, pH 8.0, 100 mM EDTA and 1% BSA). The beads were left to settle overnight and the SPA signals were counted in a 96-well top counter-NXT (Packard). IC50 values were obtained by sigmoidal regression analysis using GraphPad.

In series [2] the test system is HXB2-strain of HIV-1 in MT4 cells. As to the kind of experiment: Antiviral Assay (protection of HIV-1-infected MT4 cells from cell death, MTT). The following applies: Human immunodeficiency virus 1, 120 h, MT4 cells infected with HXB2-strain of HIV-1, 5 days. It counts as cell-based. As to the method: Anti-HIV-1 antiviral activity was assessed using an adaptation of the method of Pauwels et al. (Pauwels et al., J Virol Methods 1988 20:309-321). The method is based on the ability of compounds to protect HIV-1-infected T lymphoblastoid cells (MT4 cells) from cell-death mediated by the infection. The endpoint of the assay was calculated as the concentration of compound at which the cell viability of the culture was preserved by 50% (‘50% inhibitory concentration’, IC50). The cell viability of a culture was determined by the uptake of soluble, yellow 3-[4,5-dimethylthiazol-2-yl]-2,5-diphenyltetrazolium bromide (MTT) and its reduction to a purple insoluble formazan salt. After solubilization, spectrophotometric methods were employed to measure the amount of formazan product. […]
A fresh solution of 5 mg/mL MTT was prepared in 0.01 M phosphate buffered saline, pH 7.2 and 20 microliters added to each culture. […] When the formazan deposit was fully solubilized by further mixing, the absorbance (OD) of the cultures was measured at 540 nm and 690 nm wavelength (690 nm readings were used as blanks for artifacts between wells). The percent protection for each treated culture was then calculated from the equation: […]

[3] abbreviates: HIV-1 RT enzyme 1-3 nM, 30° C., 30 min, read-out: HIV-1 RT IC50.

Where two headings read alike, the source gives them in different places.

Turning to `N#Cc1cc(Cl)cc(Oc2c(Br)ccc(Cn3c(=O)[nH]c4ccccc43)c2F)c1` [Compound I-1, 3-[6-Bromo-2-fluoro-3-(2-oxo-2,3-dihydro-benzoimidazol-1-ylmethyl)-phenoxy]-5-chloro-benzonitrile], the melting point (commonly the temperature of the solid-liquid transition) was in the range of 227 to 229 °C. Besides, in series [1] (setting [3]), the IC50 (usually the concentration that gives 50% inhibition) was determined as 12.2 nM.
For `N#Cc1cc(Cl)cc(Oc2c(Br)ccc(Cn3c(=O)[nH]c4ncccc43)c2F)c1` [Compound I-2, 3-[6-Bromo-2-fluoro-3-(2-oxo-2,3-dihydro-imidazo[4,5-b]pyridin-1-ylmethyl)-phenoxy]-5-chloro-benzonitrile] the same measures were 255.5 to 258.5 °C and 5.8 nM.
On the same counts, the results for `N#Cc1cc(Cl)cc(Oc2c(Br)ccc(Cn3c(=O)[nH]c4c3ccc[n+]4[O-])c2F)c1` [Compound I-3] are 259 to 260 °C and 15.9 nM.
The molecule `N#Cc1cc(Cl)cc(Oc2c(Br)ccc(Cn3c(=O)[nH]c4cnccc43)c2F)c1` [Compound I-4, 3-[6-Bromo-2-fluoro-3-(2-oxo-2,3-dihydro-imidazo[4,5-c]pyridin-1-ylmethyl)-phenoxy]-5-chloro-benzonitrile] gave a melting point of 219 to 221.5 °C. For the same molecule, in series [2], the IC50 was found to be 0.4 nM. The molecule also yielded an IC50 in series [1] of 5 nM.
For the molecule `N#Cc1cc(Cl)cc(Oc2c(Br)ccc(Cn3c(=O)[nH]c4c[n+]([O-])ccc43)c2F)c1` [Compound I-5], the melting point was in the range of 226.8 to 229 °C. Also, in series [1] (setting [3]), the IC50 is 492 nM.
Molecule `N#Cc1cc(Cl)cc(Oc2c(Cl)ccc(Cn3c(=O)[nH]c4cnccc43)c2F)c1` [Compound I-6, 3-Chloro-5-[6-chloro-2-fluoro-3-(2-oxo-2,3-dihydro-imidazo[4,5-c]pyridin-1-ylmethyl)-phenoxy]-benzonitrile] showed a melting point of 232 to 233 °C. Besides, the IC50 in series [1] (setting [3]) was 7 nM.
As to `N#Cc1cc(Cl)cc(Oc2c(Br)ccc(Cn3c(=O)[nH]c4nnccc43)c2F)c1` [Compound I-7, 3-[6-Bromo-2-fluoro-3-(6-oxo-6,7-dihydro-imidazo[4,5-c]pyridazin-5-ylmethyl)-phenoxy]-5-chloro-benzonitrile], the IC50 in series [1] (setting [3]) is 5.1 nM.
As to `N#Cc1cc(Cl)cc(Oc2c(Br)ccc(Cn3cn[nH]c3=O)c2F)c1` [Compound I-8, 3-[6-Bromo-2-fluoro-3-(5-oxo-1,5-dihydro-[1,2,4]triazol-4-ylmethyl)-phenoxy]-5-chloro-benzonitrile], the melting point was found to be 107 °C. The IC50 in series [1] (setting [3]) worked out at 45.1 nM.
On the same counts, the results for `CCc1n[nH]c(=O)n1Cc1ccc(Br)c(Oc2cc(Cl)cc(C#N)c2)c1F` [Compound I-9, 3-[6-Bromo-3-(3-ethyl-5-oxo-1,5-dihydro-[1,2,4]triazol-4-ylmethyl)-2-fluoro-phenoxy]-5-chloro-benzonitrile] are 264 to 265 °C and 19.7 nM.
On to `Cc1n[nH]c(=O)n1Cc1ccc(Br)c(Oc2cc(Cl)cc(C#N)c2)c1F` [Compound I-10, 3-[6-Bromo-2-fluoro-3-(3-methyl-5-oxo-1,5-dihydro-[1,2,4]triazol4-ylmethyl)-phenoxy]-5-chloro-benzonitrile], for which the melting point lay in the range of 129.9 to 131 °C. In addition, in series [1] (setting [3]), the IC50 amounted to 54.6 nM.
For `N#Cc1cc(Cl)cc(Oc2c(Br)ccc(CNC(=O)Nc3ccccc3F)c2F)c1` [Compound I-11] the same measures were 215.5 to 215.8 °C and 33.1 nM.
For `N#Cc1cc(Cl)cc(Oc2c(Br)ccc(COC(=O)Nc3ccc(Cl)cc3Cl)c2F)c1` [Compound I-12] the same measures were 138.3 to 139.9 °C and 68.2 nM.
